Results: publication PMC12624434 (ACS Pharmacology & Translational Science, 2025)
Entries after “also recorded” stand apart in the source; their conditions may differ. Marks after values point to notes of the source that are not given here.

Key:
[1] = target: T1, NRP1 b1 domain (Homo sapiens, UniProt O14786); assay: SPR binding to immobilized NRP1 b1 domain (Biacore 4000, CM5 chip); conditions: steady-state binding, 25 °C; mean ± SD; read-out: SPR NRP1 b1 domain equilibrium KD
T1 construct: with the purified recombinant NRP1 b1 domain immobilized on the chip; inferred from Ni-NTA capture), TEV-cleavable (cleaved yes); made in house; host or cells: E. coli Rosetta (DE3)
T1 sequence (O14786 275-424 limits assumed): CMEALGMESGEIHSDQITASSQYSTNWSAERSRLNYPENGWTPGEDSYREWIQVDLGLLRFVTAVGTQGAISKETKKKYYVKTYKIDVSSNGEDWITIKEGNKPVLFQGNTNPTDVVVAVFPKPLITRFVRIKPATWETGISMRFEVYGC
Procedure: Surface Plasmon Resonance experiments were performed using a Biacore 4000 instrument at a constant temperature of 25 °C. Sensor chips, buffer stock solutions, and immobilization reagents were purchased from GE Healthcare. Recombinant human NRP1-b1 was produced in-house and recombinant human NRP1-ECD (extracellular domain) was purchased from ACRO (catalogue number NR1-H5A228). All other reagents were obtained from Sigma.
PBS containing 0.05% surfactant P20 was used as the running buffer during immobilization. NRP1-b1 was immobilized onto a CM5 chip using random amine coupling. The four flow cells were treated in the same way to optimize throughput. In summary, spots 1 and 2 were activated with the coupling reagents EDC and NHS for 10 min. NRP1-b1 at a concentration of 20 μg/mL in 10 mM sodium acetate pH 5 was injected onto the surface for 10 and 5 min in spots 1 and 2, respectively to generate surfaces with high and low density. […] The unmodified spot 3 was used as a reference.
PBS buffer containing 0.05% surfactant P20 and 3% DMSO was used as the running buffer and sample dilution buffer throughout these experiments. Dose–responses were obtained using a 2-fold sample dilution from 16 μM to 31 nM, using an injection time of 60 s. Surface regeneration between injections was not necessary, but a wash step with 1 M NaCl was included after injection of the highest concentration sample for each compound.
Binding curves were corrected for variations in DMSO concentration and normalized by molecular weight. Binding results to high and low-density surfaces were processed independently and the average ± SD is presented. K Ds reported are derived from steady-state binding responses and therefore correspond to the equilibrium binding affinity of the compounds.

[2] = test system: P-p38 in human brain endothelial cell line hCMEC/D3; assay: p38 phosphorylation in hCMEC/D3 cells (immunoblotting); type: cell-based
Procedure: Cell lysates of the human brain endothelial cell line hCMEC/D3 were prepared in RIPA buffer containing 0.1% SDS, protease inhibitor cocktail 2 and phosphatase inhibitor cocktail (Sigma-Aldrich). Proteins were separated by SDS-PAGE and transferred to nitrocellulose by wet electrotransfer. Membranes were blocked with 5% milk in Tris-buffered saline (TBS) overnight at 4 °C and then incubated with the appropriate primary antibody diluted in TBS containing 0.1% Tween-20 and 1% BSA for 2 h and 30 min at rt; the primary antibodies used were specific for phospho P-p38, p38 (1:1000; Cell Signaling Technology) and GADPH (1:10000; Merck). Membranes were washed with 0.1% Tween-20 in TBS and then incubated with goat antimouse or goat antirabbit horseradish peroxidase (HRP)-conjugated IgG (GE Healthcare) diluted 1:10,000 or 1:5000, respectively, with 0.1% Tween-20, 1% BSA in PBS. Membranes were developed using the ECL reagents (Roche) and images were acquired with the Bio-Rad ChemiDoc MP Imaging System and the Bio-Rad Image Lab software (version 6.0.1). Protein bands were quantified using ImageJ software version 1.52a (NIH Bethesda), whereby signal intensity was normalized to signal intensity from GADPH from the same sample as a loading control. Phosphorylation levels were normalized against the total levels of p38. Densitometric quantification of three independent immunoblots was determined by changes in protein or phosphoprotein content normalized to GADPH total protein loading controls, with values expressed as fold increase. Data are shown as mean ± SD. Statistical analysis included one-way ANOVA with significance levels set at 0.05, followed by posthoc Dunnett’s tests.

[3] = for comparison; no reference given; cited from earlier work
[4] = test system: VEGFA-induced mechanical allodynia in rats; assay: VEGFA-induced mechanical allodynia (von Frey), intraplantar injection; type: in vivo, rat
Procedure: (§1) The procedure was performed as reported previously. Briefly, rats were gently restrained in a fabric cloth and given an intraplantar injection in the hind-paw containing VEGFA165 (10 nM) and compound (EG00229 or 12h, at 30 or 10 μM) alone or in combination in 50 μL of PBS vehicle (NaCl 137 mM, KCl 2.5 mM, Na2HPO4 10 mM, and KH2PO4 1.8 mM), using a 31G needle.

[5] = test system: total Na+ currents in rat DRG neurons; assay: Whole-cell patch-clamp of Na+ currents in dissociated DRG neurons; type: cell-based; conditions: for V 1/2 activation, total Na+ / V 1/2 inactivation, total Na+: mean ± SEM (n cells)
Procedure: Recordings were obtained from acutely dissociated DRG neurons obtained from female rats as described earlier. Patch-clamp recordings were performed at room temperature (22–24 °C). Currents were recorded using an EPC 10 Amplifier-HEKA (HEKA Elektronik, Ludwigshafen, Germany) linked to a computer with Patchmaster software.
To determine the effect of VEGFA application on voltage-gated sodium currents, we incubated DRG neurons for 30 min with recombinant rat VEGFA, 1 nM (Cat#P4853, Abnova, Taipei, Taiwan) before whole-cell patch-clamp recordings. […] For the control condition, DRG neurons were incubated for 30 min with DMSO at a final concentration of 0.1%.
For Na^+ current (I Na+) recordings, the external solution contained (in mM): 130 NaCl, 3 KCl, 30 tetraethylammonium chloride, 1 CaCl2, 0.5 CdCl2, 1 MgCl2, 10 D-glucose and 10 HEPES (pH 7.3 adjusted with NaOH, and mOsm/L = 315). Patch pipettes were filled with an internal solution containing (in mM): 140 CsF, 1.1Cs-EGTA, 10 NaCl, and 15 HEPES (pH 7.3 adjusted with CsOH, and mOsm/L = 300). Peak Na^+ current was acquired by applying 150 ms voltage steps from – 70 to +60 mV in 5-mV increments from a holding potential of – 60 mV to obtain the current–voltage (I–V) relation.
Normalization of currents to each cell’s capacitance (pF) was performed to allow for collection of current density data. For I–V curves, functions were fitted to data using a nonlinear least-squares analysis. I–V curves were fitted using double Boltzmann functions: f=a+g1/(1+exp((x−V1/21)/k1))+g2/(1+exp(−(x−V1/22)/k2)) where x is the membrane potential, V 1/2 is the midpoint potential and k is the corresponding slope factor for single Boltzmann functions. Double Boltzmann fits were used to describe the shape of the curve, not to imply the existence of separate channel populations. Numbers 1 and 2 simply indicate first and second midpoints; a along with g are fitting parameters.
Activation curves were obtained from the I–V curves by dividing the peak current at each depolarizing step by the driving force according to the equation: G = I/(V mem – E rev), where I is the peak current, V mem is the membrane potential and E rev is the reversal potential. The conductance (G) was normalized against the maximum conductance (G max). Steady-state inactivation (SSI) curves were obtained by applying an H-infinity protocol that consisted of 1-s conditioning prepulses from −120 to +10 mV in 10-mV increments followed by a 200 ms test pulse to +10 mV. Inactivation curves were obtained by dividing the peak current recorded at the test pulse by the maximum current (I max). Activation and SSI curves were fitted with the Boltzmann equation.

[6] = test system: VEGFA-induced aversion to mechanical stimuli in rats; assay: Conditioned place aversion (CPA) to 10 g vF stimulation after VEGFA; type: in vivo, rat
Procedure: as §1
The experiments were conducted in a two-chamber device based on the protocols from and as previously described. The protocol includes 4 × 10 min of sequential tests of preconditioning (10 min), conditioning (2 × 10 min) and testing (10 min). During preconditioning, the animal is allowed free access to two connected chambers (30 × 30 × 19 cm), each associated with a scented lip-balm applied to the walls. Immediately following preconditioning, a divider was applied between the chambers, and the rats were conditioned to either stimuli or no-stimuli for 10 min in each chamber. The stimuli consisted of repeated stimulation with a 10 g VF-filament every 30 s for the 10 min that the subject was contained in that chamber, while no stimuli (NS) was applied in the other chamber. The order and side of conditioning was alternated between subjects. Following the conditioning, the divider was removed, and the rat was allowed free access to both chambers for the 10 min test. Animal movements in each chamber were recorded by a camera above, and the duration of time spent in each chamber was recorded during preconditioning and test phase. Decreased time spent in a chamber during the test versus preconditioning indicated avoidance for that chamber and was calculated as a CPA-score: time in VF-chamber during preconditioning – time in VF-chamber during test.

[7] = test system: T180/Y182 phosphorylated p38 (P-p38) in retinal endothelium; assay: VEGFA-induced p38 phosphorylation in ex vivo mouse retina (immunostaining); type: cell-based
Procedure: Retinae from C57Bl/6J mice were fixed in 4% formaldehyde in PBS for 1 h and washed three times with PBS. After 1 h in blocking buffer (3% Triton X-100, 1%1% Tween and 0.5% BSA in 2× PBS), retinae were immunostained by incubation with rabbit anti-P-p38 MAPK (Thr180/Tyr182) antibody (Cell Signaling) and biotin-conjugated Isolectin B4 (IB4, Merck) overnight at 4 °C, followed by Alexa Fluor 555–conjugated goat antirabbit antibodies (Invitrogen) and Alexa Fluor 488-conjugated streptavidin (Invitrogen) respectively for 1 h at rt. Images were acquired with a Zeiss Axioskop 2 microscope, using a ph3 Plan-Apochromat 63×/1.40 oil objective, Hamamatsu camera and the HCImage software. Each image was acquired as an RGB color image and then processed with ImageJ software version 1.52a (NIH Bethesda). Channels were split to separate the IB4 staining (green channel) from the P-p38 staining (red channel). The threshold function was used on the IB4 image to determine the area of the vessels and to generate a mask that was restored in the red channel image to measure the area of the vessels positive to P-p38 staining. The P-p38 staining area was normalized against the area stained with IB4. Three retinae from three different mice per condition were used for analysis. One-way ANOVA was used to compare the different treatments.

[8] = 30 μM, 15 min prior to VEGFA165 stimulation

SMILES: NC(N)=NCCCC(NC(=O)c1sccc1NS(=O)(=O)c1cccc2nsnc12)C(=O)O (centres unmarked) [EG00229, reference compound]
- Kd [1]: 2710 ± 130 nM
- p38 phosphorylation when added alone ([2]; 30 μM alone, 5 min): induced p38 kinase phosphorylation
- effect on VEGFA-induced p38 phosphorylation [2, 8]: prevented VEGFA-induced p38 phosphorylation
- half-life [3]: 34.8 min
- effect on VEGFA-induced mechanical allodynia ([4]; 10 μM coinjected with VEGFA, male rats): produced significant antinociceptive effects
- effect on VEGFA-induced mechanical allodynia (paw withdrawal threshold, AUC 0-6 h) ([4]; 30 μM coinjected with VEGFA165 10 nM, 50 μL intraplantar, male and female rats): comparable antinociceptive effects in males and females
- effect on Na+ currents, alone ([5]; 30 μM alone, 30 min): Neither EG00229 nor 12h alone had any obvious effect
- effect on VEGFA-induced increase in Na+ currents and current density ([5]; 30 μM, then VEGFA165 1 nM 30 min, small-sized DRG neurons): equally reduced
- V 1/2 activation, total Na+ ([5]; compound 30 μM + VEGFA): –16.384 ± 0.773 (15) ^b mV
- V 1/2 inactivation, total Na+ ([5]; compound 30 μM + VEGFA): –49.707 ± 2.554 (15) mV
- V 1/2 activation, total Na+ ([5]; compound alone, 30 μM): –15.229 ± 0.972 (10) ^b mV
- V 1/2 inactivation, total Na+ ([5]; compound alone, 30 μM): –49.108 ± 2.415 (10) mV
- effect on VEGFA-induced aversion in CPA-paradigm ([6]; 10 μM, male rats): had no effect
- VEGFA-induced aversion (time in vF-conditioned chamber) ([6]; 30 μM coinjected with VEGFA 10 nM, male and female rats): prevented the stimulus-aversion from VEGFA in both sexes; also recorded: the aversion was prevented
- CPA-score vs VEGFA/vehicle ([6]; 30 μM, female rats): showed a significant effect
- p38 phosphorylation when added alone ([7]; 30 μM alone, 5 min): induced p38 phosphorylation
- effect on VEGFA-induced p38 phosphorylation in retinal endothelium [7, 8]: prevented VEGFA-induced p38 phosphorylation
